Seven compounds from patent publication US20260001914A1, “MACROCYCLIC PEPTIDES TARGETING KRAS” (Merck Sharp & Dohme LLC, priority 2022, published 2026) can be followed below.

The structures appear in SMILES notation. *1 amine or outer side, *2 acyl side, *3 side chain or, on linkers, in order; H or OH if unused. Where a SMILES comes first, the peptide text is derived from it. Bridges are numbered along the chain shown (N, C = ends). [ ]: non-standard residue; d: D form. Phe(4-guanidino) = N=C(N)Nc1ccc(C[C@H](N)C(=O)O)cc1; X18 = CNC(=N)N(C)c1ccc(C[C@H](N[*:1])C(=O)[*:2])cc1; Ala(pyrimidin-5-yl) = N[C@@H](Cc1cncnc1)C(=O)O; NMe3Pal(6-Me) = CN[C@@H](Cc1ccc(C)nc1)C(=O)O; X32 = CS(=O)(=O)CCCN(CC(=O)[*:2])[*:1]; NMeOrn(Me) = CNCCC[C@H](NC)C(=O)O; NMeF = CN[C@@H](Cc1ccccc1)C(=O)O; 3Pal = N[C@@H](Cc1cccnc1)C(=O)O; Ahp(2) = CCCCC[C@H](N)C(=O)O; Cba = N[C@@H](CC1CCC1)C(=O)O; αMeC = C[C@](N)(CS)C(=O)O

Sequence of KRAS-G12D protein (P01116 1-188 isoform P01116-2 G12D): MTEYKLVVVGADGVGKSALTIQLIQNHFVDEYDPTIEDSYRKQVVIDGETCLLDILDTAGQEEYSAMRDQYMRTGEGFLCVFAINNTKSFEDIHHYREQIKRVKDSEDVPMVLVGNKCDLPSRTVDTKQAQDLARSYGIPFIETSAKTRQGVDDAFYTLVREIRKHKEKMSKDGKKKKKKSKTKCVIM

This test addresses KRAS-G12D protein (Homo sapiens, UniProt P01116, G12D). The test can be described thus: SOS-mediated nucleotide exchange assay (BODIPY-GDP / Tb-streptavidin TR-FRET). Format: biochemical. A general note: Time-resolved FRET reads energy transfer from a long-lived donor to a nearby acceptor.
Consider `CCCCC[C@@H]1NC(=O)[C@H](Cc2ccc(OC)cc2)NC(=O)[C@H](CC2CCC2)NC(=O)[C@H](Cc2ccc(NC(=N)N)cc2)NC(=O)CN(CCCS(C)(=O)=O)C(=O)[C@H](Cc2ccccc2)NC(=O)CSC[C@@](C)(C(N)=O)NC(=O)[C@H](Cc2ccccc2)N(C)C1=O` [compound 389, cyclo(F-Mspg-Phe4Gn-cBuA-TyrOMe-Ahp-NMeF-aMeCl-ClAc)] ({CH2CO}-F[X32][Phe(4-guanidino)][Cba]Y(Me)[Ahp(2)][NMeF][αMeC]-NH2; thioether N-8), for which a half-maximal effect (EC50) was put at 441 nM.

`CCCCC[C@@H]1NC(=O)[C@H](Cc2ccc(OC)cc2)NC(=O)[C@H](CC2CCC2)NC(=O)[C@H](Cc2ccc(-c3cccnc3N)cc2)NC(=O)[C@H](CCCNC(=N)N)NC(=O)[C@H](Cc2ccccc2)NC(=O)CSC[C@@](C)(C(N)=O)NC(=O)[C@H](Cc2ccccc2)N(C)C1=O` [compound 390, cyclo(F-R-Phe43PyNH2-cBuA-TyrOMe-Ahp-NMeF-aMeCl-ClAc)]: the concentration for a half-maximal effect (EC50) (commonly the concentration that produces a half-maximal response) turned out to be 9.17 nM.

For the compound `CCCCC[C@@H]1NC(=O)[C@H](Cc2ccc(OC)cc2)NC(=O)[C@H](CC2CCC2)NC(=O)[C@H](Cc2ccc(N3CCC[C@@H]3CN)cc2)NC(=O)[C@H](CCCNC(=N)N)NC(=O)[C@H](Cc2ccccc2)NC(=O)CSC[C@@](C)(C(N)=O)NC(=O)[C@H](Cc2ccccc2)N(C)C1=O` [compound 391, cyclo(F-R~Phe4RamPyrr-cBuA-TyrOMe-Abp-NMeF-aMeCl-ClAc)], a half-maximal response (EC50) required 6.78 nM.

Regarding `CCCCC[C@@H]1NC(=O)[C@H](Cc2ccc(OC)cc2)NC(=O)[C@H](CC2CCC2)NC(=O)[C@H](Cc2ccc(N3CCC[C@H]3CN)cc2)NC(=O)[C@H](CCCNC(=N)N)NC(=O)[C@H](Cc2ccccc2)NC(=O)CSC[C@@](C)(C(N)=O)NC(=O)[C@H](Cc2ccccc2)N(C)C1=O` [compound 392, cyclo(F-R-Phe4SamPyrr-cBuA-TyrOMe-Ahp-NMeF-aMeCl-ClAc)], the concentration giving a half-maximal response (EC50) was determined as 8.59 nM.

The compound `CCCCC[C@@H]1NC(=O)[C@H](Cc2ccc(OC)cc2)NC(=O)[C@H](CC2CCC2)NC(=O)[C@H](Cc2cccnc2)NC(=O)[C@H](CCCNC)N(C)C(=O)[C@H](Cc2ccccc2)NC(=O)CSC[C@@](C)(C(N)=O)NC(=O)[C@H](Cc2ccc(C)nc2)N(C)C1=O` [compound 393, cyclo(F-NMeOrnMe-3Pal-cBuA-TyrOMe-Ahp-NMe3Pal4Me-aMeCl-ClAc)] ({CH2CO}-F[NMeOrn(Me)][3Pal][Cba]Y(Me)[Ahp(2)][NMe3Pal(6-Me)][αMeC]-NH2; thioether N-8) returned an EC50 of 132 nM.

The compound `CCCCC[C@@H]1NC(=O)[C@H](Cc2ccc(OC)cc2)NC(=O)[C@H](CC2CCC2)NC(=O)[C@H](Cc2cncnc2)NC(=O)[C@H](CCCNC)N(C)C(=O)[C@H](Cc2ccccc2)NC(=O)CSC[C@@](C)(C(N)=O)NC(=O)[C@H](Cc2ccc(C)nc2)N(C)C1=O` [compound 394, cyclo(F-NMeOmMe-PyrimAla-cBuA-TyrOMe-Ahp-NMe3Pal4Me-aMeCl-ClAc)] ({CH2CO}-F[NMeOrn(Me)][Ala(pyrimidin-5-yl)][Cba]Y(Me)[Ahp(2)][NMe3Pal(6-Me)][αMeC]-NH2; thioether N-8) gave an EC50 of 65.8 nM.

Consider `CCCCC[C@@H]1NC(=O)[C@H](Cc2ccc(OC)cc2)NC(=O)[C@H](CC2CCC2)NC(=O)[C@H](Cc2ccc(N(C)C(=N)NC)cc2)NC(=O)[C@H](CCCNC)N(C)C(=O)[C@H](Cc2ccccc2)NC(=O)CSC[C@@](C)(C(N)=O)NC(=O)[C@H](Cc2ccc(C)nc2)N(C)C1=O` [compound 395, cyclo(F-NMeOmMe-Phe4GnMeMe-cBuA-TyrOMe-Ahp-NMe3Pal4Me-aMeCl-ClAc)] ({CH2CO}-F[NMeOrn(Me)][X18][Cba]Y(Me)[Ahp(2)][NMe3Pal(6-Me)][αMeC]-NH2; thioether N-8), for which the EC50 is 16 nM.
